From BindingDB's records for doi:10.1021/ja011034p (University of Pennsylvania, 2001)

Target: Carbonic anhydrase 2 [F130V] (Homo sapiens, UniProt P00918, F130V)
Assay: In vitro binding of inhibitor to hCA-II
Conditions: pH 7.4; 37 °C
Method: Inhibitor binding to CA II was determined using a fluorescence competition assay. Displacement of dansylamide and binding of the inhibitor was determined by measuring and comparing the average fluorescence intensities of the treated versus control reactions. Binding constants were estimated from a Dixon plot of the data (reciprocal of the average fluorescence intensity versus inhibitor concentration)

| Kd [nM] | Compound |
| --- | --- |
| 2 | NS(=O)(=O)c1ccc(C(=O)NCc2c(F)c(F)c(F)c(F)c2F)cc1 [N-[(2,3,4,5,6-pentafluorophenyl)methyl]-4-sulfamoylbenzamide] |
| 1.6 | NS(=O)(=O)c1ccc(C(=O)NCc2cccc(F)c2F)cc1 [N-[(2,3-difluorophenyl)methyl]-4-sulfamoylbenzamide] |
| 3.9 | NS(=O)(=O)c1ccc(C(=O)NCc2c(F)cccc2F)cc1 [N-[(2,6-difluorophenyl)methyl]-4-sulfamoylbenzamide] |
| 2.3 | NS(=O)(=O)c1ccc(C(=O)NCc2ccccc2F)cc1 [N-[(2-fluorophenyl)methyl]-4-sulfamoylbenzamide] |
